Measured values reported in patent US20090137493A1, “Inhibition of tumor metastases using protein kinase C (PKC) inhibitors” (priority 2007, published 2009).
Bridges are numbered along the chain shown (N, C = ends). Where no end group is shown, it is not given here.

What was measured:
4T1 tumor cells = assay: Growth rate of 4T1 tumor cells in vitro; format: cell-based, mouse; conditions: doses of 0, 1, 5 and 10 μM, compared to TAT carrier peptide control
Method: FIGS. 6B-6C are bar graphs showing the affect of the αV5-3-TAT peptide on growth rate of JC tumor cells (FIG. 6B) and 4T1 tumor cells (FIG. 6C) in vitro. The cells treated with the TAT carrier peptide (TAT) or with αV5-3-TAT peptide (PKC alpha inhibitor), at doses of 0, 1, 5, and 10 μM.
To determine if the effects observed with the α and βIIPKC peptide inhibitors was due to a decrease in metastasis as opposed to a decrease in primary tumor growth, animals injected with 4T1 tumor cells were treated with saline, the αV5-3-TAT conjugate peptide (αPKC), or the βIIV5-3-TAT conjugate peptide (βPKC) and the number of tumors cells at the primary site of injection were determined.

tumor cells = assay: Adhesion of intravenously injected tumor cells to the lungs (imaging); format: in vivo, mice; conditions: for adhesion of tumor cells in the lung, imaging: versus TAT
Method: FIG. 7A is a bar graph showing the affect of αV5-3-TAT peptide on the adhesion of tumor cells into the lungs. Animals were treated with TAT carrier peptide (TAT), or αV5-3-TAT peptide (PKC alpha inhibitor), initiated two days before, and continued for 12 days following, injection of tumor cells intravenously;
FIGS. 7B-7C are images of mice two days after treatment as described in FIG. 7A. The mice in FIG. 7B were treated with TAT and the mice in FIG. 7C treated with αV5-3-TAT peptide.
FIGS. 7D-7E are images of mice following five days of treatment as described in FIG. 7A. The mice in FIG. 7D were treated TAT (control) and the mice in FIG. 7E were treated with αV5-3-TAT peptide (PKC a inhibitor).
For example, FIG. 7A is a bar graph showing the affect of αV5-3-TAT peptide on the adhesion of tumor cells into the lungs. In this experiment, animals were treated with TAT carrier peptide (TAT), or αV5-3-TAT peptide (PKC alpha inhibitor), for two days before injection of tumor cells intravenously. Adhesion of tumor cells to the lung was reduced in animals treated with the PKC alpha inhibitor compared to control animals.
FIGS. 7B and 7C are images of representative mice two days after treatment. The mice in FIG. 7B were treated with TAT and the mice in FIG. 7C treated with αV5-3-TAT peptide. […] FIGS. 7D-7E are images of mice following five days of treatment. The mice in FIG. 7D were treated TAT (control) and the mice in FIG. 7E were treated with αV5-3-TAT peptide (PKC a inhibitor).

JC cells = assay: Wound healing (migration) assay, JC; format: cell-based, mouse; conditions: peptide 1 uM, re-applied every 2 h for 8 h
Method: FIGS. 15A-15D are micrographs showing the efficacy of TAT carrier peptide (TAT; FIG. 15A), αV5-3-TAT peptide (Alpha; FIG. 15B), βIIV5-3 peptide (Beta2; FIG. 15C), and εV1-2 (Epsilon; FIG. 15D) on JC cell migration.
To investigate the role of PKC inhibitors in reducing the migration of tumor cells, in vitro migration assays were performed using MDA-MB-231 breast cancer cells (FIGS. 12A-12D), MCF-7 breast cancer cell (FIGS. 13A-13D), JC cells (FIGS. 15A-15D), and 4T1 cells (FIGS. 16A-16D), in the presence of TAT carrier peptide (TAT), αV5-3-TAT peptide (Alpha), βIIV5-3 peptide (Beta2), or εV1-2 peptide (Epsilon).
Wound healing assay: Human or mouse breast cancer cell lines were grown in 6-well plates until about 90% confluent. Cells were then grown in serum free media overnight, before media was changed to media +1% FBS and peptide PKC inhibitors added (1 uM), at the same time a pipette tip was drawn across the cell layer to create a scrape ‘wound’. PKC inhibitors were re-applied every 2 h for a total of 8 h, before cells were left for a further 12 h and then the scrape was examined under phase contrast microscopy.

[1] = test system: MDA-MB-231 breast cancer cells; assay: Cell migration/invasion assay through a HUVEC monolayer, MDA-MB-231; format: cell-based, human; conditions: peptide 10 μM, re-applied every 2 hours for 10 hours
Text: (§1) FIGS. 14A and 14B are bar graphs showing the efficacy of TAT carrier peptide (TAT), αV5-3-TAT peptide (Alpha), βIIV5-3 peptide (Beta-2), and εV1-2 (Epsilon) in inhibiting the invasion of human MDA-MB-231 and MCF-7 breast cancer cells through a HUVEC monolayer. FIGS. 14C and 14D are bar graphs showing the efficacy of TAT carrier peptide (TAT) or αV5-3-TAT peptide in inhibiting the invasion of 4T1 (FIG. 11C) and MDA-MB-231 (FIG. 11D) cells.
as §1, with “14B show the results of a related experiment measuring” for “14B are bar graphs showing”, “εV1-2 peptide” for “εV1-2”, “14D show the results of a similar experiment” for “14D are bar graphs”
Cell Migration/invasion assay: Primary human endothelial cells (HUVEC's) were plated on top of a matrigel plug in trans-well plates. Once the cells had reached confluence (as determined by examination of a control well), 1×10^6 human breast cancer cells (MCF-7 or MDA-MB-231) expressing luciferase were added above the HUVEC cell layer. Where applicable, peptides were added to a final concentration of 10 μM and re-applied every 2 hours for 10 hours followed by further incubation. After 24-48 hours-incubation the HUVEC cell layer (and all other cells above the matrigel) were removed by scraping of the cell layer into the media and aspiration (repeated 3 times). The relative numbers of cancer cells that had crossed the HUVEC cell layer and entered the matrigel was then determined by bioluminescence detection of luciferase action following addition of luciferin substrate.

Substance: YGRKKRRQRRR-CC-QLVIAN (YGRKKRRQRRRCCQLVIAN; disulfide 12-13 (inferred)) [αV5-3-TAT]
- inhibition of growth of 4T1 tumor cells in vitro (4T1 tumor cells): does not substantially inhibit
- adhesion of tumor cells in the lung, imaging (tumor cells; five days of treatment, FIGS. 7D-7E): reduced adhesion
- adhesion of tumor cells to the lung (tumor cells; treatment from two days before intravenous injection of tumor cells, FIG. 7A, versus TAT control): reduced
- adhesion of tumor cells in the lung, imaging (tumor cells; two days after treatment, FIGS. 7B-7C): reduced adhesion
- migration of JC cells (JC cells): reduced
- invasion of MDA-MB-231 cells through a HUVEC monolayer [1]: reduced
